The source of these data is patent publication US5262522A, “Receptor for oncostatin M and leukemia inhibitory factor” (Immunex Corporation, priority 1991, dated 1993).

The test has as its system oncostatin M. Description: Oncostatin M binding assay (phthalate oil separation, Scatchard) on transfected COS-7 cells. The note with it: cells preincubated with non-radiolabeled LIF before 125I-oncostatin M (curve B). From the text:
Oncostatin M may be purified from cells in which the protein is naturally found, or from cells transformed with an expression vector encoding oncostatin M. One source of oncostatin M is phorbol ester-treated U937 cells, as described by Zarling et al., PNAS U.S.A. 83:9739 (1986). Purification of recombinant oncostatin M is described by Linsley et al., J. Biol. Chem. 264:4282-4289 (1989), which is hereby incorporated by reference in its entirety.
Oncostatin M may be radiolabeled using any suitable conventional procedure, such as the radioiodination procedure employed to radiolabel LIF in Example 1. The radio-iodination of oncostatin M has also been described by Linsley et al., supra.
The resulting radiolabeled oncostatin M may be substituted for radiolabeled LIF (using the same concentrations and other reaction parameters) in the assay procedures described in Example 1 in order to detect proteins and cells that bind oncostatin M. An assay for binding of ^125 I-oncostatin M to cells is also described in Linsley et al., supra.
COS-7 cells transfected with vector(s) encoding gp130 or LIF-R were assayed for the ability to bind oncostatin M. In separate transfections, COS-7 cells were transfected with the following combinations of vectors. […]

With “gp130 and LIF-R: receptor of gp130 and LIF-R co-expressed on COS-7 cells co-transfected with vectors B10G and pHLIFR-65”, the “binding of oncostatin M after preincubation with LIF” value was “did not bind oncostatin M in any measurable amount above that bound by the non-transfected COS-7 cells”.
